Experimental data as given in ChEMBL document CHEMBL1201862, “PubChem BioAssay data set” (2004).
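Values below derive from 48-hour exposures of cells grown in 96-well plates, with endpoints linearly interpolated between the two concentrations bracketing the appropriate inhibition level. At the GI50, growth is halved.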 Calls of active or inactive are those of the source. No stated cut-off is given here; in the data, active = GI50 up to about 1.1 µM and inactive = higher.

What was measured:
Assay in all cases: NCI-60 cell line screen, 48 h
RXF 393 = tested on: RXF 393
SF-539 = tested on: SF-539
BT-549 = tested on: BT-549
Hs-578T = tested on: Hs-578T
UACC-257 = tested on: UACC-257
UACC-62 = tested on: UACC-62
HCT-116 = tested on: HCT-116
KM12 = tested on: KM12
OVCAR-5 = tested on: OVCAR-5
IGROV-1 = tested on: IGROV-1
SF-268 = tested on: SF-268
Malme-3M = tested on: Malme-3M
OVCAR-4 = tested on: OVCAR-4
M14 = tested on: M14
MDA-MB-231 = tested on: MDA-MB-231
NCI-H522 = tested on: NCI-H522
UO-31 = tested on: UO-31
NCI/ADR-RES = tested on: NCI/ADR-RES
SK-MEL-28 = tested on: SK-MEL-28
HCC 2998 = tested on: HCC 2998

Compound	GI50 (RXF 393)	GI50 (SF-539)	GI50 (BT-549)	GI50 (Hs-578T)	GI50 (UACC-257)	GI50 (UACC-62)	GI50 (HCT-116)	GI50 (KM12)	GI50 (OVCAR-5)	GI50 (IGROV-1)	GI50 (SF-268)	GI50 (Malme-3M)	GI50 (OVCAR-4)	GI50 (M14)	GI50 (MDA-MB-231)	GI50 (NCI-H522)	GI50 (UO-31)	GI50 (NCI/ADR-RES)	GI50 (SK-MEL-28)	GI50 (HCC 2998)
O=C(O)c1ccccc1-c1ccccc1C(=O)c1ccccc1	> 100 µM (inactive)	> 100 µM (inactive)	> 100 µM (inactive)	> 100 µM (inactive)	> 100 µM (inactive)	> 100 µM (inactive)	> 100 µM (inactive)	> 100 µM (inactive)	> 100 µM (inactive)	> 100 µM (inactive)	> 100 µM (inactive)	> 100 µM (inactive)	> 100 µM (inactive)	> 100 µM (inactive)	> 100 µM (inactive)	> 100 µM (inactive)	> 100 µM (inactive)	> 100 µM (inactive)	> 100 µM (inactive)	
CN(C)CCSS(=O)(=O)O	> 100 µM (inactive)	> 100 µM (inactive)	> 100 µM (inactive)	> 100 µM (inactive)		> 100 µM (inactive)	> 100 µM (inactive)	> 100 µM (inactive)	> 100 µM (inactive)	> 100 µM (inactive)	> 100 µM (inactive)	> 100 µM (inactive)	> 100 µM (inactive)	> 100 µM (inactive)	> 100 µM (inactive)	83.9 µM (inactive)	> 100 µM (inactive)	> 100 µM (inactive)	> 100 µM (inactive)	
COc1ncnc2c(Cl)c(C(O)c3ccccc3)c(Cl)cc12 (centres undefined)	15.5 µM (inactive)	20.6 µM (inactive)	20.6 µM (inactive)	19.6 µM (inactive)	> 100 µM (inactive)	16.1 µM (inactive)	17.9 µM (inactive)	26.7 µM (inactive)	60.5 µM (inactive)	29.3 µM (inactive)	21 µM (inactive)	34.6 µM (inactive)	29.1 µM (inactive)	23.9 µM (inactive)	18.6 µM (inactive)	31.3 µM (inactive)	37.3 µM (inactive)	28 µM (inactive)	34.6 µM (inactive)	
Cc1cccc(N2C(=O)C3c4[nH]c5ccccc5c4C4CCC(C(C)(C)C)CC4C3C2=O)c1C (centres undefined)	> 100 µM (inactive)	75.9 µM (inactive)	> 100 µM (inactive)	25.8 µM (inactive)	> 100 µM (inactive)	> 100 µM (inactive)	28.7 µM (inactive)		> 100 µM (inactive)	> 100 µM (inactive)		> 100 µM (inactive)		> 100 µM (inactive)	19 µM (inactive)		> 100 µM (inactive)	> 100 µM (inactive)		> 100 µM (inactive)
N#Cc1sc2c(c1OC(=O)c1cccs1)c(=O)n(-c1ccccc1)c(=S)n2-c1ccccc1	14.9 µM (inactive)	22.4 µM (inactive)	15.5 µM (inactive)	15.2 µM (inactive)	32 µM (inactive)	17.2 µM (inactive)	15.2 µM (inactive)	18.9 µM (inactive)		19.8 µM (inactive)	30.1 µM (inactive)	18.2 µM (inactive)	20.7 µM (inactive)	19.1 µM (inactive)	20.1 µM (inactive)	16.4 µM (inactive)	16.1 µM (inactive)	21.8 µM (inactive)	21.9 µM (inactive)	
O=S1(=O)Cc2ccc3c4c2-c2c(ccc5ccc(c-4c25)CS(=O)(=O)C3)C1		51.9 µM (inactive)	91.8 µM (inactive)	> 100 µM (inactive)	> 100 µM (inactive)	87.1 µM (inactive)	46.3 µM (inactive)	41.9 µM (inactive)	> 100 µM (inactive)	29.8 µM (inactive)	53.1 µM (inactive)	> 100 µM (inactive)	> 100 µM (inactive)	> 100 µM (inactive)	> 100 µM (inactive)	46.8 µM (inactive)	43.3 µM (inactive)	> 100 µM (inactive)	> 100 µM (inactive)	> 100 µM (inactive)
CCOC(=O)c1cn(CC)c2cc3c(cc2c1=O)CCS3(=O)=O	> 100 µM (inactive)	> 100 µM (inactive)	> 100 µM (inactive)	> 100 µM (inactive)		> 100 µM (inactive)	> 100 µM (inactive)	> 100 µM (inactive)	> 100 µM (inactive)	> 100 µM (inactive)	> 100 µM (inactive)	> 100 µM (inactive)		> 100 µM (inactive)	> 100 µM (inactive)		> 100 µM (inactive)	> 100 µM (inactive)	> 100 µM (inactive)	> 100 µM (inactive)
O=[N+]([O-])c1ccc(-c2nc(/C=N/N3CCCCC3)cs2)o1	> 100 µM (inactive)	> 100 µM (inactive)	92.5 µM (inactive)	> 100 µM (inactive)	19.3 µM (inactive)	31.9 µM (inactive)	34.1 µM (inactive)	33.9 µM (inactive)	> 100 µM (inactive)	50.8 µM (inactive)	> 100 µM (inactive)	22.8 µM (inactive)	23.6 µM (inactive)	37.4 µM (inactive)	48.4 µM (inactive)	45.2 µM (inactive)	> 100 µM (inactive)	74.8 µM (inactive)	31.6 µM (inactive)	
CCCN1C(=O)CC(C)N(Cc2ccccc2Cl)C1=S (centres undefined)	3.9 µM (inactive)	16 µM (inactive)	24.4 µM (inactive)	30.8 µM (inactive)	17.2 µM (inactive)	19.1 µM (inactive)	24.7 µM (inactive)	28.9 µM (inactive)	50.2 µM (inactive)	33.4 µM (inactive)	24.4 µM (inactive)	25.4 µM (inactive)	43.7 µM (inactive)	25.7 µM (inactive)	28.7 µM (inactive)	21.1 µM (inactive)		21.2 µM (inactive)	22.9 µM (inactive)	
CC1=NNC(=O)C1C1CC(c2c[nH]c3ccccc23)=NN=C1Cl (centres undefined)	45.8 µM (inactive)	55.6 µM (inactive)	37 µM (inactive)	61.8 µM (inactive)	> 100 µM (inactive)	85.7 µM (inactive)	44.3 µM (inactive)	21.9 µM (inactive)	> 100 µM (inactive)	20.6 µM (inactive)	55.6 µM (inactive)	> 100 µM (inactive)		53.5 µM (inactive)	46.6 µM (inactive)	45.8 µM (inactive)	31.2 µM (inactive)	> 100 µM (inactive)	87.5 µM (inactive)	
CC(=O)NC1C(OC2C(CO)OC(OCC3OC(n4ccc(N)nc4=O)C(O)C3O)C(NC(C)=O)C2O)OC(CO)C(O)C1O (centres undefined)	> 100 µM (inactive)	> 100 µM (inactive)	> 100 µM (inactive)	> 100 µM (inactive)	> 100 µM (inactive)	> 100 µM (inactive)	> 100 µM (inactive)	> 100 µM (inactive)	> 100 µM (inactive)	> 100 µM (inactive)	> 100 µM (inactive)	5.97 µM (inactive)	> 100 µM (inactive)	> 100 µM (inactive)	> 100 µM (inactive)	9.2 µM (inactive)	> 100 µM (inactive)	> 100 µM (inactive)	> 100 µM (inactive)	
[O-][S+](c1ccccc1)c1ccc(/N=N/O)nc1 (centres undefined)	0.213 µM (active)	> 100 µM (inactive)	> 100 µM (inactive)	> 100 µM (inactive)	> 100 µM (inactive)	> 100 µM (inactive)	> 100 µM (inactive)	> 100 µM (inactive)	> 100 µM (inactive)	> 100 µM (inactive)	> 100 µM (inactive)	0.492 µM (active)	> 100 µM (inactive)	> 100 µM (inactive)	> 100 µM (inactive)	> 100 µM (inactive)	> 100 µM (inactive)	> 100 µM (inactive)	> 100 µM (inactive)	
c1ccc([B-]2(c3ccccc3)NCCCO2)cc1	28.8 µM (inactive)	33.3 µM (inactive)	31.4 µM (inactive)	32.1 µM (inactive)	49.9 µM (inactive)	45.4 µM (inactive)	35.8 µM (inactive)	91.2 µM (inactive)	> 100 µM (inactive)	55 µM (inactive)	> 100 µM (inactive)	48.9 µM (inactive)	67.9 µM (inactive)	31.3 µM (inactive)	42.5 µM (inactive)	33.4 µM (inactive)	20 µM (inactive)	64.1 µM (inactive)	56.8 µM (inactive)	
Cc1occc1C(=S)Nc1ccc(Cl)c(C(=O)OCC(C)C)c1		22.3 µM (inactive)	17.2 µM (inactive)	25.1 µM (inactive)	17.9 µM (inactive)	12.6 µM (inactive)	14.4 µM (inactive)	14.4 µM (inactive)	31.8 µM (inactive)	18.1 µM (inactive)	21.4 µM (inactive)	19.3 µM (inactive)	13.3 µM (inactive)	22.8 µM (inactive)	16.6 µM (inactive)	14.1 µM (inactive)	17.7 µM (inactive)	12.9 µM (inactive)	16.3 µM (inactive)	18.9 µM (inactive)
CN(C)CCSc1cc(-c2ccccc2)c2ccccc2n1	3.14 µM (inactive)	9.18 µM (inactive)	12.3 µM (inactive)	10.3 µM (inactive)	10.4 µM (inactive)	2.59 µM (inactive)	7.43 µM (inactive)	14.3 µM (inactive)	13.4 µM (inactive)	12.9 µM (inactive)	11.8 µM (inactive)	10.8 µM (inactive)		2.69 µM (inactive)	11.3 µM (inactive)	10.7 µM (inactive)	10.6 µM (inactive)	14.9 µM (inactive)	4.7 µM (inactive)	
